{"source": "patent US20150289513A1", "about": "“USE OF A COMPOUND COMPRISING A POLYFLUOROBENZYL MOIETY AGAINST INSECTICIDE-RESISTANT PESTS” (priority 2012, published 2015)", "key": {"[1]": {"test_system": "Culex quinquefasciatus (metabolic-resistant to DDT; strain P00)", "assay": "Glazed tile contact test, knock-down", "assay_type": "in vivo", "method": "(§1) To produce a suitable preparation Transfluthrin was dissolved in acetone. The active compound solution was pipetted onto a glazed tile and, after drying, adult mosquitoes of the species: • Anopheles gambiae (target-site-resistant and metabolic-resistant strain: RSPH), • Anopheles gambiae (target-site-resitant and metabolic-resistant strain: Tiassalé), • Anopheles gambiae (tar et-site-resitant and metabolic-resistant strain: Akron), • Anopheles gambiae (target-site-resistant strain: VK7), and • Anopheles funestus (metabolic-resistant strain FUMOZ-R) were placed onto the treated tile (each strain was tested on separate tiles). The exposition time was 30 minutes.\nSimilarly as outlined in example 2 for Transfluthrin, Metofluthrin efficacy was assessed against • Anopheles gambiae (target-site-resistant and metabolic-resistant strain: RSPH), • Anopheles funestus (metabolic-resistant strain FUMOZ-R), and • Culex quinquefasciatus (metabolic-resistant to DDT; strain P00), with the results shown in Tables 10 to 12. 0.25 hours, 0.5 hours, 1 hour, 2 hour, 3 hour, 4 hour and 24 hours after contact to the treated surface, the knock-down proportion of the test animals in % is depicted in Tables 10 to 12. 100% (effect) means that all mosquitoes have been killed; 0% (effect) means that none of the mosquitoes have been killed."}, "[2]": {"test_system": "Anopheles gambiae (strain: Tiassalé)", "assay": "Glazed tile contact test, knock-down", "assay_type": "in vivo", "method": "as §1\n0.25 hours, 0.5 hours, 1 hour, 2 hour, 3 hour, 4 hour and 24 hours after contact to the treated surface, the knock-down proportion of the test animals in % was determined. Here, 100% (effect) means that all mosquitoes have been killed; 0% (effect) means that none of the mosquitoes have been killed."}}}
{"molecule": "CC=CC1C(C(=O)OCc2c(F)c(F)c(COC)c(F)c2F)C1(C)C", "note": "(stereo not shown) [Metofluthrin, 2,3,5,6-Tetrafluoro-4-(methoxymethyl)benzyl 2,2-dimethyl-3-(prop-1-en-1-yl)cyclopropanecarboxylate]", "values": [{"measurement": "Effect %", "setting": "[1]; 0.064 /ha, 0.25 h after contact", "result": 0, "unit": "%"}, {"measurement": "Effect %", "setting": "[1]; 0.064 /ha, 0.5 h after contact", "result": 0, "unit": "%"}, {"measurement": "Effect %", "setting": "[1]; 0.064 /ha, 1 h after contact", "result": 0, "unit": "%"}, {"measurement": "Effect %", "setting": "[1]; 0.064 /ha, 2 h after contact", "result": 0, "unit": "%"}, {"measurement": "Effect %", "setting": "[1]; 0.064 /ha, 3 h after contact", "result": 0, "unit": "%"}, {"measurement": "Effect %", "setting": "[1]; 0.064 /ha, 4 h after contact", "result": 0, "unit": "%"}, {"measurement": "Effect %", "setting": "[1]; 0.064 /ha, 24 h after contact", "result": 0, "unit": "%"}, {"measurement": "Effect %", "setting": "[1]; 0.32 /ha, 0.25 h after contact", "result": 0, "unit": "%"}, {"measurement": "Effect %", "setting": "[1]; 0.32 /ha, 0.5 h after contact", "result": 0, "unit": "%"}, {"measurement": "Effect %", "setting": "[1]; 0.32 /ha, 1 h after contact", "result": 0, "unit": "%"}, {"measurement": "Effect %", "setting": "[1]; 0.32 /ha, 2 h after contact", "result": 0, "unit": "%"}, {"measurement": "Effect %", "setting": "[1]; 0.32 /ha, 3 h after contact", "result": 0, "unit": "%"}, {"measurement": "Effect %", "setting": "[1]; 0.32 /ha, 4 h after contact", "result": 0, "unit": "%"}, {"measurement": "Effect %", "setting": "[1]; 0.32 /ha, 24 h after contact", "result": 10, "unit": "%"}, {"measurement": "Effect %", "setting": "[1]; 1.6 /ha, 0.25 h after contact", "result": 90, "unit": "%"}, {"measurement": "Effect %", "setting": "[1]; 1.6 /ha, 0.5 h after contact", "result": 100, "unit": "%"}, {"measurement": "Effect %", "setting": "[1]; 1.6 /ha, 1 h after contact", "result": 100, "unit": "%"}, {"measurement": "Effect %", "setting": "[1]; 1.6 /ha, 2 h after contact", "result": 100, "unit": "%"}, {"measurement": "Effect %", "setting": "[1]; 1.6 /ha, 3 h after contact", "result": 100, "unit": "%"}, {"measurement": "Effect %", "setting": "[1]; 1.6 /ha, 4 h after contact", "result": 100, "unit": "%"}, {"measurement": "Effect %", "setting": "[1]; 1.6 /ha, 24 h after contact", "result": 100, "unit": "%"}, {"measurement": "Effect %", "setting": "[1]; 8 /ha, 0.25 h after contact", "result": 100, "unit": "%"}, {"measurement": "Effect %", "setting": "[1]; 8 /ha, 0.5 h after contact", "result": 100, "unit": "%"}, {"measurement": "Effect %", "setting": "[1]; 8 /ha, 1 h after contact", "result": 100, "unit": "%"}, {"measurement": "Effect %", "setting": "[1]; 8 /ha, 2 h after contact", "result": 100, "unit": "%"}, {"measurement": "Effect %", "setting": "[1]; 8 /ha, 3 h after contact", "result": 100, "unit": "%"}, {"measurement": "Effect %", "setting": "[1]; 8 /ha, 4 h after contact", "result": 100, "unit": "%"}, {"measurement": "Effect %", "setting": "[1]; 8 /ha, 24 h after contact", "result": 100, "unit": "%"}, {"measurement": "Effect %", "setting": "[1]; 40 /ha, 0.25 h after contact", "result": 100, "unit": "%"}, {"measurement": "Effect %", "setting": "[1]; 40 /ha, 0.5 h after contact", "result": 100, "unit": "%"}, {"measurement": "Effect %", "setting": "[1]; 40 /ha, 1 h after contact", "result": 100, "unit": "%"}, {"measurement": "Effect %", "setting": "[1]; 40 /ha, 2 h after contact", "result": 100, "unit": "%"}, {"measurement": "Effect %", "setting": "[1]; 40 /ha, 3 h after contact", "result": 100, "unit": "%"}, {"measurement": "Effect %", "setting": "[1]; 40 /ha, 4 h after contact", "result": 100, "unit": "%"}, {"measurement": "Effect %", "setting": "[1]; 40 /ha, 24 h after contact", "result": 100, "unit": "%"}, {"measurement": "Effect %", "setting": "[1]; 200 /ha, 0.25 h after contact", "result": 100, "unit": "%"}, {"measurement": "Effect %", "setting": "[1]; 200 /ha, 0.5 h after contact", "result": 100, "unit": "%"}, {"measurement": "Effect %", "setting": "[1]; 200 /ha, 1 h after contact", "result": 100, "unit": "%"}, {"measurement": "Effect %", "setting": "[1]; 200 /ha, 2 h after contact", "result": 100, "unit": "%"}, {"measurement": "Effect %", "setting": "[1]; 200 /ha, 3 h after contact", "result": 100, "unit": "%"}, {"measurement": "Effect %", "setting": "[1]; 200 /ha, 4 h after contact", "result": 100, "unit": "%"}, {"measurement": "Effect %", "setting": "[1]; 200 /ha, 24 h after contact", "result": 100, "unit": "%"}, {"measurement": "Effect %", "setting": "[1]; 1000 /ha, 0.25 h after contact", "result": 100, "unit": "%"}, {"measurement": "Effect %", "setting": "[1]; 1000 /ha, 0.5 h after contact", "result": 100, "unit": "%"}, {"measurement": "Effect %", "setting": "[1]; 1000 /ha, 1 h after contact", "result": 100, "unit": "%"}, {"measurement": "Effect %", "setting": "[1]; 1000 /ha, 2 h after contact", "result": 100, "unit": "%"}, {"measurement": "Effect %", "setting": "[1]; 1000 /ha, 3 h after contact", "result": 100, "unit": "%"}, {"measurement": "Effect %", "setting": "[1]; 1000 /ha, 4 h after contact", "result": 100, "unit": "%"}, {"measurement": "Effect %", "setting": "[1]; 1000 /ha, 24 h after contact", "result": 100, "unit": "%"}]}
{"molecule": "CC1(C)[C@H](C=C(Cl)Cl)[C@H]1C(=O)OCc1c(F)c(F)cc(F)c1F", "note": "[Transfluthrin, (1R,3S)-3-(2,2-Dichlorovinyl)-2,2-dimethyl-1-cyclopropanecarboxylic acid (2,3,5,6-tetrafluorophenyl)methyl ester]", "values": [{"measurement": "Effect %", "setting": "[2]; 0.064 g/ha, 0.25 h after contact", "result": 5, "unit": "%"}, {"measurement": "Effect %", "setting": "[2]; 0.064 g/ha, 0.5 h after contact", "result": 10, "unit": "%"}, {"measurement": "Effect %", "setting": "[2]; 0.064 g/ha, 1 h after contact", "result": 15, "unit": "%"}, {"measurement": "Effect %", "setting": "[2]; 0.064 g/ha, 2 h after contact", "result": 15, "unit": "%"}, {"measurement": "Effect %", "setting": "[2]; 0.064 g/ha, 3 h after contact", "result": 15, "unit": "%"}, {"measurement": "Effect %", "setting": "[2]; 0.064 g/ha, 4 h after contact", "result": 10, "unit": "%"}, {"measurement": "Effect %", "setting": "[2]; 0.064 g/ha, 24 h after contact", "result": 20, "unit": "%"}, {"measurement": "Effect %", "setting": "[2]; 0.32 g/ha, 0.25 h after contact", "result": 5, "unit": "%"}, {"measurement": "Effect %", "setting": "[2]; 0.32 g/ha, 0.5 h after contact", "result": 15, "unit": "%"}, {"measurement": "Effect %", "setting": "[2]; 0.32 g/ha, 1 h after contact", "result": 5, "unit": "%"}, {"measurement": "Effect %", "setting": "[2]; 0.32 g/ha, 2 h after contact", "result": 10, "unit": "%"}, {"measurement": "Effect %", "setting": "[2]; 0.32 g/ha, 3 h after contact", "result": 10, "unit": "%"}, {"measurement": "Effect %", "setting": "[2]; 0.32 g/ha, 4 h after contact", "result": 10, "unit": "%"}, {"measurement": "Effect %", "setting": "[2]; 0.32 g/ha, 24 h after contact", "result": 15, "unit": "%"}, {"measurement": "Effect %", "setting": "[2]; 1.6 g/ha, 0.25 h after contact", "result": 0, "unit": "%"}, {"measurement": "Effect %", "setting": "[2]; 1.6 g/ha, 0.5 h after contact", "result": 15, "unit": "%"}, {"measurement": "Effect %", "setting": "[2]; 1.6 g/ha, 1 h after contact", "result": 10, "unit": "%"}, {"measurement": "Effect %", "setting": "[2]; 1.6 g/ha, 2 h after contact", "result": 5, "unit": "%"}, {"measurement": "Effect %", "setting": "[2]; 1.6 g/ha, 3 h after contact", "result": 5, "unit": "%"}, {"measurement": "Effect %", "setting": "[2]; 1.6 g/ha, 4 h after contact", "result": 0, "unit": "%"}, {"measurement": "Effect %", "setting": "[2]; 1.6 g/ha, 24 h after contact", "result": 10, "unit": "%"}, {"measurement": "Effect %", "setting": "[2]; 8 g/ha, 0.25 h after contact", "result": 90, "unit": "%"}, {"measurement": "Effect %", "setting": "[2]; 8 g/ha, 0.5 h after contact", "result": 100, "unit": "%"}, {"measurement": "Effect %", "setting": "[2]; 8 g/ha, 1 h after contact", "result": 100, "unit": "%"}, {"measurement": "Effect %", "setting": "[2]; 8 g/ha, 2 h after contact", "result": 85, "unit": "%"}, {"measurement": "Effect %", "setting": "[2]; 8 g/ha, 3 h after contact", "result": 80, "unit": "%"}, {"measurement": "Effect %", "setting": "[2]; 8 g/ha, 4 h after contact", "result": 85, "unit": "%"}, {"measurement": "Effect %", "setting": "[2]; 8 g/ha, 24 h after contact", "result": 60, "unit": "%"}, {"measurement": "Effect %", "setting": "[2]; 40 g/ha, 0.25 h after contact", "result": 100, "unit": "%"}, {"measurement": "Effect %", "setting": "[2]; 40 g/ha, 0.5 h after contact", "result": 100, "unit": "%"}, {"measurement": "Effect %", "setting": "[2]; 40 g/ha, 1 h after contact", "result": 100, "unit": "%"}, {"measurement": "Effect %", "setting": "[2]; 40 g/ha, 2 h after contact", "result": 95, "unit": "%"}, {"measurement": "Effect %", "setting": "[2]; 40 g/ha, 3 h after contact", "result": 90, "unit": "%"}, {"measurement": "Effect %", "setting": "[2]; 40 g/ha, 4 h after contact", "result": 85, "unit": "%"}, {"measurement": "Effect %", "setting": "[2]; 40 g/ha, 24 h after contact", "result": 85, "unit": "%"}, {"measurement": "Effect %", "setting": "[2]; 200 g/ha, 0.25 h after contact", "result": 100, "unit": "%"}, {"measurement": "Effect %", "setting": "[2]; 200 g/ha, 0.5 h after contact", "result": 100, "unit": "%"}, {"measurement": "Effect %", "setting": "[2]; 200 g/ha, 1 h after contact", "result": 100, "unit": "%"}, {"measurement": "Effect %", "setting": "[2]; 200 g/ha, 2 h after contact", "result": 100, "unit": "%"}, {"measurement": "Effect %", "setting": "[2]; 200 g/ha, 3 h after contact", "result": 100, "unit": "%"}, {"measurement": "Effect %", "setting": "[2]; 200 g/ha, 4 h after contact", "result": 100, "unit": "%"}, {"measurement": "Effect %", "setting": "[2]; 200 g/ha, 24 h after contact", "result": 85, "unit": "%"}]}
